The values below come from US4668799A, “Anti-hepatitis and anti-cirrhotic 1,3-dithiol-2-ylidene derivatives, and pharmaceutical compositions therefor” (Banyu Pharmaceutical Co., Ltd., priority 1985, dated 1987).

Series [1] has as its system liver (acute liver injury induced by carbon tetrachloride). The experiment in a line: Protective Effect on Acute Liver Injury Induced by Carbon Tetrachloride. Type of series: in vivo, mice (ddY). The settings on record: mice; for inhibition in vivo at 50 mg/kg: Mus musculus, po, 50 mg/kg p.o. 6 h before CCl4, CCl4 alone = 0, normal = 100; for Liver Damage Index: 50 mg/kg p.o. 6 h before CCl4 0.05 ml/kg p.o., visual score 0 normal, 2 slightly, 4 distinctly, 6 remarkably injured, CCl4 alone 6.0. The protocol: A test compound was dissolved or suspended in olive oil and administered orally at a dose of 50 mg/kg to mice (ddY, mice, .male., 23±2 g, n=5). After 6 hours, carbon tetrachloride (0.05 ml/kg) was administered orally, 24 Hours after the administration of carbon tetrachloride, BSP (sodium sulfobromophthalene; 75 mg/kg) was administered intravenously. Thirty minutes later, the cardiac blood was collected, and GPT (glutamic-pyruvic transaminase) activity and the retention rate of BSP in the plasma were measured. Further, the liver injury immediately after the collection of the blood was visually observed and evaluated by the following score for liver damage index.

The next series can be described thus: Acute Toxicity Test. Type of series: in vivo. The settings on record: mouse, in vivo; mice, oral, mortality one week after administration. The protocol: (§1) A test compound was dissolved or suspended in olive oil and administered orally to mice (ddY mice, .male., 23±2 g, n=5). The acute toxicity value (LD50) was determined from the mortality one week after the administration.

The test system of a further series is mice. The experiment in a line: Acute Toxicity Test. Type of series: in vivo. The settings on record: oral, one week after administration. The protocol: as §1
Series [2] relates to fatty liver induced by carbon tetrachloride. The experiment in a line: Therapeutic Effect on Fatty Liver Induced by Carbon Tetrachloride. The settings on record: rats, 50 mg/kg p.o. for 7 days. Type of series: in vivo, rats (SD strain). As for the experimental part: Carbon tetrachloride (1 ml/kg) was subcutaneously administered to rats (SD strain, .male., 38 week-old, n=5) for 4 days. Upon expiration of 3 days from the administration of carbon tetrachloride, Compound 6 was orally given successively for 7 days at the dose of 50 mg/kg. On the 8th day, the animals were sacrificed by exsanguination. The therapeutic effect was evaluated by examining the content of triglyceride in the liver and the concentration of apoprotein B in the plasma.

The next series deals with liver protein synthesis. Briefly: Effect on Protein Synthesis in Liver. Type of series: in vivo, rats (Wister strain). The following applies: rats, 100 mg/kg p.o. for 3 days. The protocol:
Compound 6 was dissolved in olive oil and orally administered successively for 3 days at a dose of 100 mg/kg to rats (Wister strain, .male., 180±10 g, 6 week-old, n=5). 24 Hours after the administration of the test compound was completed, the animals were sacrificed. The effect on the protein synthesis in the liver was evaluated by determining the liver weight and protein content.

A further series relates to liver damages. The following applies: in vivo; cited from earlier work.
Where [3] appears, read: BSP 75 mg/kg i.v., retention in plasma after 30 min, read-out: % Prophylaxis BSP.
[4] abbreviates: plasma GPT activity, read-out: % Prophylaxis p-GPT.

Read-outs that look alike come from different tables or passages of the source.

For the molecule `CC(=O)C(C(C)=O)=C1SC=CS1` [Compound 1, 3-(1,3-dithiol-2-ylidene)-2,4-pentanedione], the inhibition in vivo at 50 mg/kg worked out at 80% in series [1] (setting [3]) and 25% in series [1] (setting [4]). In series [1], the “Liver Damage Index” value is 5.0.

With `CCC(=O)C(C(C)=O)=C1SC=CS1` [Compound 2, 3-(1,3-dithiol-2-ylidene)-2,4-hexanedione], the inhibition in vivo at 50 mg/kg in series [1] (setting [3]) was 85%; in series [1] (setting [4]) it was 72%. In addition, in series [1], the “Liver Damage Index” value was 1.4.

Consider `CCOCC(=O)C(C(C)=O)=C1SC=CS1` [Compound 3, 3-(1,3-dithiol-2-ylidene)-1-ethoxy-2,4-pentanedione], for which the inhibition in vivo at 50 mg/kg in series [1] (setting [3]) was 102%; in series [1] (setting [4]), 97%. Further, the “Liver Damage Index” value in series [1] turned out to be 2.2.

For orientation: LD50 means the dose at which mortality reaches 50%. `CC(C)CC(=O)C(C(=O)CC(C)C)=C1SC=CS1` [Compound 4, 5-(1,3-dithiol-2-ylidene)-2,8-dimethyl-4,6-nonanedione]: the inhibition in vivo at 50 mg/kg is 108% in series [1] (setting [3]) and 100% in series [1] (setting [4]). Besides, the “Liver Damage Index” value in series [1] turned out to be 1.0. Further, in the series “Acute Toxicity Test”, the LD50 at 168 h is at least 2000 mg/kg. For the same molecule, the “toxicity (in words)” value with mice is given as “low toxicity”.

For the molecule `CC(=O)C(C(=O)C1CCCCC1)=C1SC=CS1` [Compound 5, 2-(1,3-dithiol-2-ylidene)-1-cyclohexyl-1,3-butanedione], the inhibition in vivo at 50 mg/kg stood at 96% in series [1] (setting [3]) and 89% in series [1] (setting [4]). The “Liver Damage Index” value in series [1] was 2.8. Moreover, the LD50 at 168 h in the series “Acute Toxicity Test” was at least 2000 mg/kg. Further, the “toxicity (in words)” value with mice is on record as “low toxicity”.

`CC(=O)C(C(=O)c1ccccc1)=C1SC=CS1` [Compound 6, 2-(1,3-dithiol-2-ylidene)-1-phenyl-1,3-butanedione]: the “effect for curing the fatty liver (in words)” value in series [2] is on record as “significant effect for curing the fatty liver”. Also, the “effect for stimulating the protein metabolic function of the liver (in words)” value in the series with liver protein synthesis is recorded as “substantial effect for stimulating the protein metabolic function of the liver”. The 50% lethal dose (LD50) at 168 h in “Acute Toxicity Test” is at least 2000 mg/kg. For the same molecule, the “toxicity (in words)” value in the series on mice was “low toxicity”.

`CCCC(=O)C(C(=O)c1ccccc1)=C1SC=CS1` [Compound 7, 2-(1,3-dithiol-2-ylidene)-1-phenyl-1,3-hexanedione]: in the series “Acute Toxicity Test”, the LD50 at 168 h was at least 2000 mg/kg. Also, in the series on mice, the “toxicity (in words)” value is “low toxicity”.

In turn, `CC(C)CC(=O)C(C(=O)c1ccccc1)=C1SC=CS1` [Compound 8, 2-(1,3-dithiol-2-ylidene)-5-methyl-1-phenyl-1,3-hexanedione] displayed an LD50 at 168 h in “Acute Toxicity Test” of at least 2000 mg/kg. In addition, in the series with mice, the “toxicity (in words)” value is on record as “low toxicity”.

With `CCCCCCCCCCCCCCCC(=O)C(C(=O)c1ccccc1)=C1SC=CS1` [Compound 10, 2-(1,3-dithiol-2-ylidene)-1-phenyl-1,3-octadecanedione], the inhibition in vivo at 50 mg/kg in series [1] (setting [3]) amounted to 78%; in series [1] (setting [4]) it was 42%. The “Liver Damage Index” value in series [1] stood at 2.0.

With `CC(=O)C(C(=O)c1ccc(C)cc1)=C1SC=CS1` [Compound 12, 2-(1,3-dithiol-2-ylidene)-1-(4-methylphenyl)-1,3-butanedione], the LD50 at 168 h in “Acute Toxicity Test” is at least 2000 mg/kg. Also, the “toxicity (in words)” value in the series on mice is on record as “low toxicity”.

In the case of `COc1ccc(C(=O)C(C(C)=O)=C2SC=CS2)cc1` [Compound 17, 2-(1,3-dithiol-2-ylidene)-1-(4-methoxyphenyl)-1,3-butanedione], the LD50 at 168 h in the series “Acute Toxicity Test” is at least 2000 mg/kg. Moreover, the “toxicity (in words)” value in the series with mice is “low toxicity”.

As for `CC(=O)C(C(=O)c1cccc2ccccc12)=C1SC=CS1` [Compound 27, 2-(1,3-dithiol-2-ylidene)-1-(1-naphthyl)-1,3-butanedione], the 50% lethal dose (LD50) at 168 h in “Acute Toxicity Test” was at least 2000 mg/kg. Further, the “toxicity (in words)” value with mice is listed as “low toxicity”.

On to `CC(=O)C(C(=O)c1ccc2ccccc2c1)=C1SC=CS1` [Compound 28, 2-(1,3-dithiol-2-ylidene)-1-(2-naphthyl)-1,3-butanedione], for which the LD50 at 168 h in “Acute Toxicity Test” was at least 2000 mg/kg. The “toxicity (in words)” value in the series with mice is reported as “low toxicity”.

For `O=C1CCCC(=O)C1=C1SC=CS1` [Compound 41, 2-(1,3-dithiol-2-ylidene)-1,3-cyclohexanedione], the inhibition in vivo at 50 mg/kg in series [1] (setting [3]) worked out at 66%; in series [1] (setting [4]) it was 29%. Further, in series [1], the “Liver Damage Index” value was 6.0.

As for `CC1CCC(=O)C(=C2SC=CS2)C1=O` (centres unmarked) [Compound 42, 2-(1,3-dithiol-2-ylidene)-4-methyl-1,3-cyclohexanedione], the results for the inhibition in vivo at 50 mg/kg in series [1] (setting [3]) and in series [1] (setting [4]) were 60% and 29%, respectively. Moreover, in series [1], the “Liver Damage Index” value turned out to be 6.0.

For `CC(C)C1CCC(=O)C(=C2SC=CS2)C1=O` (centres unmarked) [Compound 43, 2-(1,3-dithiol-2-ylidene)-4-isopropyl-1,3-cyclohexanedione], the inhibition in vivo at 50 mg/kg in series [1] (setting [3]) came out at 95%; in series [1] (setting [4]), 67%. Besides, the “Liver Damage Index” value in series [1] is 5.6.

In the case of `CC1(C)CC(=O)C(=C2SC=CS2)C(=O)C1` [Compound 44, 2-(1,3-dithiol-2-ylidene)-5,5-dimethyl-1,3-cyclohexanedione], the inhibition in vivo at 50 mg/kg in series [1] (setting [3]) worked out at 111%; in series [1] (setting [4]), 95%. For the same molecule, in series [1], the “Liver Damage Index” value was 1.2.

In the case of `CC(=O)C(C(=O)c1ccc(O)cc1)=C1SC=CS1` [Compound 45, 2-(1,3-dithiol-2-ylidene)-1-(4-hydroxyphenyl)-1,3-butanedione], in “Acute Toxicity Test”, the 50% lethal dose (LD50) at 168 h is at least 2000 mg/kg. Besides, the “toxicity (in words)” value in the series on mice is listed as “low toxicity”.

Regarding `CC(C)OC(=O)C(C(=O)OC(C)C)=C1SC=CS1` [Malotilate], the “effectiveness for the treatment of liver damages (in words)” value with liver damages is given as “effective for the treatment of liver damages”.
